Experimental data: the supplement of paper PMC10307832

Key:
Assay in all cases: relative viability (nuclei count vs DMSO), 5 days (fraction); higher = more cells survive
Quizartinib + Crizotinib = compound: CC(C)(C)c1cc(NC(=O)Nc2ccc(-c3cn4c(n3)sc3cc(OCCN5CCOCC5)ccc34)cc2)no1 [Quizartinib] + C[C@@H](Oc1cc(-c2cnn(C3CCNCC3)c2)cnc1N)c1c(Cl)ccc(F)c1Cl [Crizotinib] (partner 1 µM)
How it was run: (§1)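 Each reported value is a median over duplicate plates. It expresses relative viability: treated-well nuclei count divided by vehicle-well nuclei count. Lung cancer cell lines in 1536-well plates were dosed by pin tool a day after seeding, alone with one drug or with a fixed anchor-drug dose plus five library-drug doses (not always all listed) in √10 steps, and nuclei were counted after 5 days.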

Quizartinib + Decitabine = compound: CC(C)(C)c1cc(NC(=O)Nc2ccc(-c3cn4c(n3)sc3cc(OCCN5CCOCC5)ccc34)cc2)no1 [Quizartinib] + Nc1ncn([C@H]2C[C@H](O)[C@@H](CO)O2)c(=O)n1 [Decitabine] (partner 2 µM)
How it was run: as §1

YM155 + Tozasertib = compound: COCC[n+]1c2c(n(Cc3cnccn3)c1C)C(=O)c1ccccc1C2=O [YM155] + Cc1cc(Nc2cc(N3CCN(C)CC3)nc(Sc3ccc(NC(=O)C4CC4)cc3)n2)n[nH]1 [Tozasertib] (partner 0.1 µM)
How it was run: as §1

YM155 + Vorinostat = compound: COCC[n+]1c2c(n(Cc3cnccn3)c1C)C(=O)c1ccccc1C2=O [YM155] + O=C(CCCCCCC(=O)Nc1ccccc1)NO [Vorinostat] (partner 1 µM)
How it was run: as §1

Row | Cell Line | relative viability (Quizartinib + Crizotinib; first compound 0.001 µM) | relative viability (Quizartinib + Crizotinib; first compound 0.003162 µM) | relative viability (Quizartinib + Crizotinib; first compound 0.01 µM) | relative viability (Quizartinib + Crizotinib; first compound 0.03162 µM) | relative viability (Quizartinib + Crizotinib; first compound 0.1 µM) | relative viability (Quizartinib + Decitabine; first compound 0.001 µM) | relative viability (Quizartinib + Decitabine; first compound 0.003162 µM) | relative viability (Quizartinib + Decitabine; first compound 0.01 µM) | relative viability (Quizartinib + Decitabine; first compound 0.03162 µM) | relative viability (Quizartinib + Decitabine; first compound 0.1 µM) | relative viability (YM155 + Tozasertib; first compound 0.002 µM) | relative viability (YM155 + Tozasertib; first compound 0.006325 µM) | relative viability (YM155 + Tozasertib; first compound 0.02 µM) | relative viability (YM155 + Tozasertib; first compound 0.06325 µM) | relative viability (YM155 + Vorinostat; first compound 0.002 µM) | relative viability (YM155 + Vorinostat; first compound 0.006325 µM) | relative viability (YM155 + Vorinostat; first compound 0.02 µM) | relative viability (YM155 + Vorinostat; first compound 0.06325 µM)
1 | 201T | 1 | 1 | 1.03 | 1.02 | 1.05 | 0.812 | 0.799 | 0.882 | 0.847 | 0.87 | 0.916 | 0.961 | 0.955 | 0.974 | 0.931 | 0.96 | 0.982 | 0.961
2 | A549 | 0.703 | 0.691 | 0.879 | 0.457 | 0.686 | 0.193 | 0.249 | 0.161 | 0.27 | 0.25 | – | – | – | – | – | – | – | –
3 | A-427 | 0.808 | 0.926 | 0.941 | 0.813 | 0.638 | 0.517 | 0.529 | 0.582 | 0.515 | 0.566 | 0.238 | 0.191 | 0.243 | 0.177 | 0.812 | 0.849 | 0.838 | 0.629
4 | ABC-1 | 0.922 | 0.799 | 1.22 | 0.527 | 1.3 | – | 1 | 1.16 | 1.29 | 1.16 | 0.163 | 0.164 | 0.137 | 0.151 | – | 1.03 | 0.373 | 0.303
5 | BEN | 0.819 | 0.769 | 0.766 | 0.722 | 0.73 | 0.586 | 0.756 | 0.652 | 0.649 | 0.728 | 0.565 | 0.518 | 0.587 | 0.581 | 0.516 | 0.511 | 0.619 | 0.679
6 | CAL-12T | 0.652 | 0.662 | 0.724 | 0.202 | 0.696 | – | – | – | – | – | 0.311 | 0.336 | 0.376 | 0.149 | 0.624 | 0.723 | 0.623 | 0.412
7 | COR-L23 | 0.573 | 0.538 | 0.753 | 0.51 | 0.67 | 0.436 | 0.457 | 0.398 | 0.372 | 0.467 | 0.201 | 0.175 | 0.133 | 0.126 | 0.434 | 0.501 | 0.274 | 0.125
8 | COR-L 105 | 0.788 | 0.734 | 0.669 | 0.49 | 0.902 | 0.642 | 0.653 | 0.641 | – | 0.625 | 0.345 | 0.352 | 0.316 | 0.327 | 0.77 | 0.875 | 0.905 | 0.541
9 | Calu-6 | 0.719 | 0.714 | 0.814 | 0.621 | 0.752 | – | – | – | – | – | – | – | – | – | – | – | – | –
10 | ChaGo-K-1 | 1.1 | 1.06 | 1.23 | – | 1.19 | – | 0.521 | 0.589 | 0.532 | 0.596 | 0.22 | 0.208 | 0.24 | 0.236 | 0.772 | 0.744 | 0.787 | 0.747
11 | EBC-1 | 0.197 | 0.173 | 0.211 | 0.207 | 0.211 | – | – | – | – | – | – | – | – | – | – | – | – | –
12 | EKVX | 0.867 | 0.683 | 0.779 | 0.994 | 1.09 | – | 0.282 | 0.361 | 0.369 | 0.353 | 0.401 | 0.411 | 0.448 | 0.379 | 0.767 | 0.793 | 0.671 | 0.725
13 | EMC-BAC-2 | 0.753 | 0.713 | 0.873 | 0.758 | 0.738 | 0.812 | 0.975 | 1.04 | – | 0.996 | 0.265 | 0.256 | 0.273 | 0.275 | 0.428 | 0.452 | 0.606 | 0.256
14 | EPLC-272H | 0.826 | 0.828 | 0.739 | 0.845 | 1.01 | 0.301 | 0.417 | 0.375 | 0.376 | 0.382 | 0.349 | 0.198 | 0.449 | 0.223 | 0.443 | 0.384 | 0.357 | 0.55
15 | H3255 | 0.736 | 0.86 | 1 | 0.834 | 0.868 | – | 0.576 | 0.674 | 0.601 | 0.738 | 0.68 | 0.59 | 0.616 | 0.351 | 0.729 | 0.78 | 0.776 | 0.671
16 | HARA | 0.87 | 0.97 | 1.17 | 1.08 | 1.09 | 0.456 | 0.518 | 0.743 | 0.522 | 0.703 | 0.0954 | 0.122 | 0.13 | 0.121 | 0.578 | 0.462 | 0.547 | 0.606
17 | HCC-15 | 0.798 | 0.79 | 0.817 | 0.802 | 0.81 | 0.57 | 0.651 | 0.612 | 0.521 | 0.615 | 0.4 | 0.369 | 0.472 | 0.251 | 0.851 | 0.836 | 0.872 | 0.881
18 | HCC-44 | 0.66 | 0.817 | 0.927 | 0.765 | 0.682 | 0.864 | 0.798 | 0.905 | 0.996 | 0.855 | 1.01 | 1.01 | 0.888 | 0.273 | 1.01 | 1.11 | 1.12 | 1.1
19 | HCC-78 | 0.315 | 0.345 | 0.376 | 0.319 | 0.391 | 0.651 | 0.624 | 0.619 | 0.631 | 0.751 | 0.442 | 0.454 | 0.52 | 0.498 | 0.469 | 0.458 | 0.429 | 0.472
20 | HCC-366 | 0.405 | 0.411 | 0.689 | 0.517 | 0.467 | 0.313 | 0.334 | 0.352 | 0.331 | 0.314 | 0.142 | 0.136 | 0.135 | 0.113 | 0.321 | 0.393 | 0.469 | 0.279
